Literature values in PMC8036510, “The Inhibitory Effects of Plant Derivate Polyphenols on the Main Protease of SARS Coronavirus 2 and Their Structure–Activity Relationship” (Molecules, 2021).
Converted amounts (≈) assume the structure as drawn.

Columns and labels:
M^pro [1] = test system: M^pro; set-up: method as in PMID 32963564; details: 37 °C for 5 h, same substrate
M^pro [2] = test system: M^pro; set-up: method as in PMID 33022015; details: substrate MCA-AVLQSGFR-K(Dnp)-K-NH2

O=C(O[C@@H]1Cc2c(O)cc(O)cc2O[C@@H]1c1cc(O)c(O)c(O)c1)c1cc(O)c(O)c(O)c1 [Epigallocatechin gallate (EGCG), Epigallocatechin gallate]
IC50 on M^pro (M^pro [1]): 7.6 µg/mL (≈ 16.6 µM)

O=C(OC[C@H]1O[C@@H](OC(=O)c2cc(O)c(O)c(OC(=O)c3cc(O)c(O)c(O)c3)c2)[C@H](OC(=O)c2cc(O)c(O)c(OC(=O)c3cc(O)c(O)c(O)c3)c2)[C@@H](OC(=O)c2cc(O)c(O)c(OC(=O)c3cc(O)c(O)c(O)c3)c2)[C@@H]1OC(=O)c1cc(O)c(O)c(OC(=O)c2cc(O)c(O)c(O)c2)c1)c1cc(O)c(O)c(OC(=O)c2cc(O)c(O)c(O)c2)c1 [Tannic acid]
IC50 (M^pro [2]): 2.1 µM
